From ChEMBL document CHEMBL1909046, “DrugMatrix in vitro pharmacology data”

Legend:
[1] = target: T1, Alpha-1B adrenergic receptor (Rattus norvegicus, UniProt P15823); test: DRUGMATRIX: Alpha-1B adrenergic receptor radioligand binding (ligand: prazosin); type: cell membranes, Wistar, Liver, Membrane; conditions: Not Active = under 50% inhibition at 10 µM
T1 sequence (P15823 whole entry): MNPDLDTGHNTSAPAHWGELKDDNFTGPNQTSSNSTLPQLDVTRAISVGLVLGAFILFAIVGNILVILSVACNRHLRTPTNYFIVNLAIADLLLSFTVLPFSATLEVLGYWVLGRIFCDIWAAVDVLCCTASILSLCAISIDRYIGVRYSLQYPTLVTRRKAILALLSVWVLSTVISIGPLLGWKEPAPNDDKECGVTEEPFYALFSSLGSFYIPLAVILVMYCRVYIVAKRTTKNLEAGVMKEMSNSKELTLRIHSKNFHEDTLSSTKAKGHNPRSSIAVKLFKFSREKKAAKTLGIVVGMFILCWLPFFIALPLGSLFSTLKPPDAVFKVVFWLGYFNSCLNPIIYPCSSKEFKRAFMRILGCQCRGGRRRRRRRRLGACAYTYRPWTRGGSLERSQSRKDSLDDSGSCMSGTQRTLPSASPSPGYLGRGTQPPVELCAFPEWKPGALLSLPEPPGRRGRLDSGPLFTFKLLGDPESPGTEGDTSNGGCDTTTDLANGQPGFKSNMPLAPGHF

[2] = DRUGMATRIX: beta-Lactamase enzyme inhibition (substrate: Nitrocefin); parameters: species or system Bacillus cereus; conditions: Not Active = under 50% inhibition at 10 µM
Glycine receptor = Glycine receptor (Rattus norvegicus, UniProt P22771+P24524+P07727+P20781); type: cell membranes, Wistar, Spinal cord, Membrane; also: in other assays of this panel Not Active means under 50% inhibition at 10 µM
[3] = target: T2, 3-hydroxy-3-methylglutaryl-coenzyme A reductase (Homo sapiens, UniProt P04035); parameters: species or system Escherichia coli;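 also: enzyme inhibition assay of HMG-CoA reductase using radiolabeled [14C]HMG-CoA as substrate; in other assays of this panel Not Active means under 50% inhibition at 10 µM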
T2 sequence (P04035 whole entry): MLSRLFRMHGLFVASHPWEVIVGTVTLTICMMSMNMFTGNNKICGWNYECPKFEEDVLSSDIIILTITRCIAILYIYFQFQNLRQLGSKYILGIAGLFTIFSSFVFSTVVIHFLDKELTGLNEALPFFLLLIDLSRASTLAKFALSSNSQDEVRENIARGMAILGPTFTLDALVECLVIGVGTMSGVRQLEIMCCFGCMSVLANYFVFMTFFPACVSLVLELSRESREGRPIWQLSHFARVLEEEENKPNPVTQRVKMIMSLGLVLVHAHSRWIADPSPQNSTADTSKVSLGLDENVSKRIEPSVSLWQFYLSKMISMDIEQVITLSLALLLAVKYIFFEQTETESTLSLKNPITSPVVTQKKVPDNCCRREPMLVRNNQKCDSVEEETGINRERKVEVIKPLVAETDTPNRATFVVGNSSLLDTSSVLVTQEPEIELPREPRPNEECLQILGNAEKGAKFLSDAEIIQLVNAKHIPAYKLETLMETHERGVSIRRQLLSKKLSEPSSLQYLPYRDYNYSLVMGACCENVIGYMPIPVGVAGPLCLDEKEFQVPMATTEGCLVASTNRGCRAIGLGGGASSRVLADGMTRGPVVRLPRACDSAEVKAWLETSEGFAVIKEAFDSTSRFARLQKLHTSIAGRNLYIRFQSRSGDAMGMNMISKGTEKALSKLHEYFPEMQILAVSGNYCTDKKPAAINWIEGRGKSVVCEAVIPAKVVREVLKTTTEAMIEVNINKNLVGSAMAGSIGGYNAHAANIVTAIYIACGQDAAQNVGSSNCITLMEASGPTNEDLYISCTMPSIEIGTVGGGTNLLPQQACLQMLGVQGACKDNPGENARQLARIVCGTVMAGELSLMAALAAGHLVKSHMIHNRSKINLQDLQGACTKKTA

Melanocortin receptor 4 = Melanocortin receptor 4 (Homo sapiens, UniProt P32245); type: cell membranes, Membrane; conditions: hek293; also: in other assays of this panel Not Active means under 50% inhibition at 10 µM
[4] = target: Kappa-type opioid receptor (Homo sapiens, UniProt P41145); test: DRUGMATRIX: Opiate kappa (OP2, KOP) radioligand binding (ligand: [3H] Diprenorphine); type: cell membranes, HEK293, Membrane; conditions: Not Active = under 50% inhibition at 10 µM
Acetylcholinesterase = Acetylcholinesterase (Homo sapiens, UniProt P22303); test: DRUGMATRIX: Acetylcholinesterase enzyme inhibition (substrate: acetylthiocholine); type: cell-based, HEK293; conditions: hek293; Not Active = under 50% inhibition at 10 µM
Cytochrome P450 2C9 = Cytochrome P450 2C9 (Homo sapiens, UniProt P11712); conditions: bti-tn-5b1-4; also: in other assays of this panel Not Active means under 50% inhibition at 10 µM
Cytochrome P450 2C9, sequence (P11712 whole entry): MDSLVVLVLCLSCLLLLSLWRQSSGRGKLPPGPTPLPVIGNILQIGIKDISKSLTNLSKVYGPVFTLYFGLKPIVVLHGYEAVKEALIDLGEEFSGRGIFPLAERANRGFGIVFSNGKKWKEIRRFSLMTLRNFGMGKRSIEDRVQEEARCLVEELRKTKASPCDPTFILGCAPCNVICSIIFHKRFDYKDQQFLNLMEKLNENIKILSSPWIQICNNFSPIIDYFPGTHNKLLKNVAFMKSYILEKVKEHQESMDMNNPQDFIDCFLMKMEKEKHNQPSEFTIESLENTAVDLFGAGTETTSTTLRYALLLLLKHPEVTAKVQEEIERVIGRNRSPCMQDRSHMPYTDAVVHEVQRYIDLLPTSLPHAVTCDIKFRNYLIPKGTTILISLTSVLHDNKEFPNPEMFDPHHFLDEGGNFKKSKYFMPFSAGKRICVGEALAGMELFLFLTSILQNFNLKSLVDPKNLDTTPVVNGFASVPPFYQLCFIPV

Kappa-type opioid receptor, sequence (P41145 whole entry): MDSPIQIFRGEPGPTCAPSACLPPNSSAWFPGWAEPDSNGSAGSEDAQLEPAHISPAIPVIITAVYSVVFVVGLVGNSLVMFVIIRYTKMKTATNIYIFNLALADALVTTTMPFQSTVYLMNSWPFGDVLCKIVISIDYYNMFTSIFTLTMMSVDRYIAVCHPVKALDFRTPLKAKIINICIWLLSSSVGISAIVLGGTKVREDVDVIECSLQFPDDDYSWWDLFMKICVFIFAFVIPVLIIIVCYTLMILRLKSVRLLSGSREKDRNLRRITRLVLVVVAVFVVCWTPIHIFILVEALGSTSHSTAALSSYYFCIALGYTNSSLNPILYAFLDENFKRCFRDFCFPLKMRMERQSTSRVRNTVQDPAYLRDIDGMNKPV
Melanocortin receptor 4, sequence (P32245 whole entry): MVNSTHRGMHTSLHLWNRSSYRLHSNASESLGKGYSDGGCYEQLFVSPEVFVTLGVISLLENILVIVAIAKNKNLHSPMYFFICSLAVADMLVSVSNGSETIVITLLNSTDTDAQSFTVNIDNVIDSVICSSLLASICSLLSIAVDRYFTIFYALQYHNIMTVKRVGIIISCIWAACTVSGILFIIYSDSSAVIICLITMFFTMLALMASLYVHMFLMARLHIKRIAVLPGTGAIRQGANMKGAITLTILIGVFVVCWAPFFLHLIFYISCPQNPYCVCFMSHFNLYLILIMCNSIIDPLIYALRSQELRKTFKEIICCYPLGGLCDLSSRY
Acetylcholinesterase, sequence (P22303 whole entry): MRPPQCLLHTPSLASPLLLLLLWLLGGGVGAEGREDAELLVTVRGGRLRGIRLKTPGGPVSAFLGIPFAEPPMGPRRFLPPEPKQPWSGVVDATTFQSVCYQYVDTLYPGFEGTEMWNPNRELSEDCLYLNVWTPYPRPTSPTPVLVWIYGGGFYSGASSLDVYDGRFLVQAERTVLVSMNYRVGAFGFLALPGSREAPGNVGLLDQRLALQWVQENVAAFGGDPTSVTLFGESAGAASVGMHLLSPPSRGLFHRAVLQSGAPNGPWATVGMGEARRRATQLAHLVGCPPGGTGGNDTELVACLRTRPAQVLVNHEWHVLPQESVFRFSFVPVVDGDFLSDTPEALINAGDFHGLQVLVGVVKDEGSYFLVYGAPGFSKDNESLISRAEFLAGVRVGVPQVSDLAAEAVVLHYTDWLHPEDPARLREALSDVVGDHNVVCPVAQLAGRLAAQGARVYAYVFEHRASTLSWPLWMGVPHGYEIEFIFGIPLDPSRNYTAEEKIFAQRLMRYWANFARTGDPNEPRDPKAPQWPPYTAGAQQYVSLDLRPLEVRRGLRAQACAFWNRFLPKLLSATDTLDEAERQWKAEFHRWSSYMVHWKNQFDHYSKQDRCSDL

SMILES | IC50 [1] | IC50 [2] | Ki [2] | IC50 (Glycine receptor) | IC50 [3] | IC50 (Melanocortin receptor 4) | IC50 ([4]; hek293) | IC50 (Acetylcholinesterase) | IC50 (Cytochrome P450 2C9) | Ki (Cytochrome P450 2C9) | IC50 ([1]; read-out: IC50) | Ki ([1]; read-out: Ki) | Ki [4] | IC50 ([4]; read-out: IC50)
CN(C(=O)CCCOc1ccc2[nH]c(=O)ccc2c1)C1CCCCC1 [CILOSTAMIDE] | Not Active | Not Active | Not Active | Not Active | Not Active | Not Active | Not Active | Not Active | Not Active | Not Active | – | – | – | –
CC(C)(Oc1ccc(C2CC2(Cl)Cl)cc1)C(=O)O (configuration not stated) [CIPROFIBRATE] | Not Active | Not Active | Not Active | Not Active | Not Active | Not Active | Not Active | Not Active | Not Active | Not Active | – | – | – | –
Nc1nc(Cl)nc2c1ncn2[C@H]1C[C@H](O)[C@@H](CO)O1 [CLADRIBINE] | Not Active | Not Active | Not Active | Not Active | Not Active | Not Active | Not Active | Not Active | Not Active | Not Active | – | – | – | –
CC[C@H]1OC(=O)[C@H](C)[C@@H](O[C@H]2C[C@@](C)(OC)[C@@H](O)[C@H](C)O2)[C@H](C)[C@@H](O[C@@H]2O[C@H](C)C[C@H](N(C)C)[C@H]2O)[C@](C)(OC)C[C@@H](C)C(=O)[C@H](C)[C@@H](O)[C@]1(C)O [CLARITHROMYCIN] | Not Active | Not Active | Not Active | Not Active | Not Active | Not Active | Not Active | Not Active | Not Active | Not Active | – | – | – | –
O=C(O)c1cc(=O)c2c(OCC(O)COc3cccc4oc(C(=O)O)cc(=O)c34)cccc2o1 [CROMOLYN] | Not Active | Not Active | Not Active | Not Active | Not Active | Not Active | Not Active | Not Active | Not Active | Not Active | – | – | – | –
O=P1(N(CCCl)CCCl)NCCCO1 (configuration not stated) [CYCLOPHOSPHAMIDE ANHYDROUS] | Not Active | Not Active | Not Active | Not Active | Not Active | Not Active | Not Active | Not Active | Not Active | Not Active | – | – | – | –
CC(=O)O[C@]1(C(C)=O)CC[C@H]2[C@@H]3C=C(Cl)C4=CC(=O)[C@@H]5C[C@@H]5[C@]4(C)[C@H]3CC[C@@]21C [CYPROTERONE ACETATE] | Not Active | Not Active | Not Active | Not Active | Not Active | Not Active | Not Active | Not Active | Not Active | Not Active | – | – | – | –
CCN[C@@H](C)Cc1cccc(C(F)(F)F)c1 [DEXFENFLURAMINE] | Not Active | Not Active | Not Active | Not Active | Not Active | Not Active | Not Active | Not Active | Not Active | Not Active | – | – | – | –
C[C@H](C(=O)O)c1cccc(C(=O)c2ccccc2)c1 [DEXKETOPROFEN] | Not Active | Not Active | Not Active | Not Active | Not Active | Not Active | Not Active | Not Active | Not Active | Not Active | – | – | – | –
Cc1c(N(C)CS(=O)(=O)[O-])c(=O)n(-c2ccccc2)n1C.[Na+] [DIPYRONE SODIUM] | Not Active | Not Active | Not Active | Not Active | Not Active | Not Active | Not Active | Not Active | Not Active | Not Active | – | – | – | –
CC(CCc1ccc(O)cc1)NCCc1ccc(O)c(O)c1 (configuration not stated) [DOBUTAMINE] | – | Not Active | Not Active | Not Active | Not Active | Not Active | Not Active | Not Active | Not Active | Not Active | 0.336 µM | 0.186 µM | – | –
CCn1cc(C(=O)O)c(=O)c2cc(F)c(N3CCNCC3)nc21 [ENOXACIN] | Not Active | Not Active | Not Active | Not Active | Not Active | Not Active | Not Active | Not Active | Not Active | Not Active | – | – | – | –
CCC(=O)O[C@H]1[C@H](O[C@@H]2[C@@H](C)[C@H](O[C@H]3C[C@@](C)(OC)[C@@H](O)[C@H](C)O3)[C@@H](C)C(=O)O[C@H](CC)[C@@](C)(O)[C@H](O)[C@@H](C)C(=O)[C@H](C)C[C@@]2(C)O)O[C@H](C)C[C@@H]1N(C)C [ERYTHROMYCIN PROPIONATE] | Not Active | Not Active | Not Active | Not Active | Not Active | Not Active | Not Active | Not Active | Not Active | Not Active | – | – | – | –
C=C(CC)C(=O)c1ccc(OCC(=O)O)c(Cl)c1Cl [ETHACRYNIC ACID] | Not Active | Not Active | Not Active | Not Active | Not Active | Not Active | Not Active | Not Active | Not Active | Not Active | – | – | – | –
C#C[C@]1(O)CC[C@H]2[C@@H]3CCc4cc(O)ccc4[C@H]3CC[C@@]21C [ETHINYL ESTRADIOL] | Not Active | Not Active | Not Active | Not Active | Not Active | Not Active | – | Not Active | Not Active | Not Active | – | – | 10.4 µM | 25.9 µM
OCCO [ETHYLENE GLYCOL] | Not Active | Not Active | Not Active | Not Active | Not Active | Not Active | Not Active | Not Active | Not Active | Not Active | – | – | – | –
CC(=O)OCC(CCn1cnc2cnc(N)nc21)COC(C)=O [FAMCICLOVIR] | Not Active | Not Active | Not Active | Not Active | Not Active | Not Active | Not Active | Not Active | Not Active | Not Active | – | – | – | –
O=C(O)Cc1ccc(-c2ccccc2)cc1 [FELBINAC] | Not Active | Not Active | Not Active | Not Active | Not Active | Not Active | Not Active | Not Active | Not Active | Not Active | – | – | – | –
CC(C(=O)O)c1ccc(-c2ccccc2)c(F)c1 (configuration not stated) [FLURBIPROFEN] | Not Active | Not Active | Not Active | Not Active | Not Active | Not Active | Not Active | Not Active | Not Active | Not Active | – | – | – | –
NC[C@@H]1O[C@H](O[C@H]2[C@@H](O)[C@H](O[C@@H]3[C@@H](O)[C@H](N)C[C@H](N)[C@H]3O[C@H]3O[C@H](CN)[C@@H](O)[C@H](O)[C@H]3N)O[C@@H]2CO)[C@H](N)[C@@H](O)[C@@H]1O [FRAMYCETIN] | Not Active | Not Active | Not Active | Not Active | Not Active | Not Active | Not Active | Not Active | Not Active | Not Active | – | – | – | –
